In experiment [1] the test system is NCI-H1299. In words: Inhibitory concentration against NCI-H1299 Human Nonsmall cell lung cancer cells after 24 hr exposure to the compound. It counts as functional, cell-based. The settings on record: NCI-H1299, 24 h.
Experiment [2] has as its system NCI-H1299. In words: Inhibitory concentration against NCI-H1299 Human Nonsmall cell lung cancer cells after 96h exposure to the compound. The settings on record: NCI-H1299, 96 h. It counts as functional, cell-based.
The target of experiment [3] is T1, Bombesin receptor subtype-3 (Homo sapiens) (UniProt P32247).
T1 sequence (whole entry): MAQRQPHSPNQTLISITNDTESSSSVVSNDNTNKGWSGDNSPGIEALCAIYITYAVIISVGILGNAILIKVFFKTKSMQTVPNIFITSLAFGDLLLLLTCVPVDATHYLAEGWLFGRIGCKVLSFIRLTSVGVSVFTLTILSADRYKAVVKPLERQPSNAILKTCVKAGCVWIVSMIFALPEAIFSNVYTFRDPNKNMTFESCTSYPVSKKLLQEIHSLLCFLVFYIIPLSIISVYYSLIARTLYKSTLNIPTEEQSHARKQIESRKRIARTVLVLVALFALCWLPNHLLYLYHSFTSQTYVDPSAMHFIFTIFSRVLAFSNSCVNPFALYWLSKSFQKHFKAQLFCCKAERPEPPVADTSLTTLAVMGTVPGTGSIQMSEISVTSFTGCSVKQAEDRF
In words: Inhibition of [125I]Tyr3-BBN binding to NCI-H1299 cell line. It counts as cell-based. The conditions noted are these: concentration not given here.

In experiment [4] the target is Gastrin-releasing peptide receptor (Mus musculus) (UniProt P21729). Kind of experiment: Inhibition of [125I]Tyr3-BBN binding to BNR-11 cell line (Bombesin/gastrin-releasing peptide receptor). It counts as cell-based. The settings on record: concentration not given here.
Gastrin-releasing peptide receptor (Mus musculus), sequence (P21729 whole entry): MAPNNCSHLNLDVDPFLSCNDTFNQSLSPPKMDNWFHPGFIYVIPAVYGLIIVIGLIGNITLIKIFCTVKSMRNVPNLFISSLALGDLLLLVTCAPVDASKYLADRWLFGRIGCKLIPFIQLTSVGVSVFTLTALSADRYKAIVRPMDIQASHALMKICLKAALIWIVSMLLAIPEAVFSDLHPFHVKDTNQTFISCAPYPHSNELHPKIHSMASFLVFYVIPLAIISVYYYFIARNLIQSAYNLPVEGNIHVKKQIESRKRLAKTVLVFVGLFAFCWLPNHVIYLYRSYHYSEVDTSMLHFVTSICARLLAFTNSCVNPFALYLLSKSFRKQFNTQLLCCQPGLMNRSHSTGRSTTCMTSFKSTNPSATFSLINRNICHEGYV

Regarding `CC(=O)O[C@H]1C(=O)[C@@]2(C)[C@H]([C@H](OC(=O)c3ccccc3)[C@]3(O)C[C@H](OC(=O)[C@H](O)[C@@H](NC(=O)c4ccccc4)c4ccccc4)C(C)=C1C3(C)C)[C@]1(OC(C)=O)CO[C@@H]1C[C@@H]2O` [PACLITAXEL], the half-maximal inhibitory concentration (IC50) (in general, the concentration needed to halve the response being measured) in the experiment on NCI-H1299 [1] worked out at 35 nM; in the experiment with NCI-H1299 [2] it was 15 nM.
For the compound `CC(C)C[C@H](NC(=O)[C@H](Cc1c[nH]cn1)NC(=O)CNC(=O)[C@@H](NC(=O)[C@H](C)NC(=O)[C@H](Cc1c[nH]c2ccccc12)NC(=O)[C@@H](N)CCC(N)=O)C(C)C)C(N)=O`, the inhibition – broadly, how much of the control response was suppressed – was found to be 3.6% in experiment [3] and 14% in experiment [4].

Source of the values: ChEMBL document CHEMBL1132692, “Paclitaxel derivatives for targeted therapy of cancer: toward the development of smart taxanes” (J Med Chem, 1999).
